Test results: patent US10562850B2, “Human plasma kallikrein inhibitors” (priority 2015, dated 2020)

Experiments:
[1] = system: patients with hereditary angioedema (HAE); details: cited from earlier work
[2] = system: animal model of ischemic stroke; details: cited from earlier work
rat models of arthritis = details: cited from earlier work
human plasma kallikrein = human plasma kallikrein (Homo sapiens (Human), UniProt P03952); assay: Plasma Kallikrein Activity Assay (chromogenic substrate S2302); assay type: biochemical; details: 2 nM kallikrein, 80 μM S2302, 30° C., pH 7.8; Cheng-Prusoff
Chain of human plasma kallikrein (P03952 391-638): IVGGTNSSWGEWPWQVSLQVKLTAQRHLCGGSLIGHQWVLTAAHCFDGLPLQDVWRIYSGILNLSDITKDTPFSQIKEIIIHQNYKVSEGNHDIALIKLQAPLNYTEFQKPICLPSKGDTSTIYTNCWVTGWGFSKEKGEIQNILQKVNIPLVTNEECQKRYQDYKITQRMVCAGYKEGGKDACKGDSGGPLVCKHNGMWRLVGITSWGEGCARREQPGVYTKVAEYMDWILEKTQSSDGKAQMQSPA
Chain of human plasma kallikrein (P03952 20-390 partner): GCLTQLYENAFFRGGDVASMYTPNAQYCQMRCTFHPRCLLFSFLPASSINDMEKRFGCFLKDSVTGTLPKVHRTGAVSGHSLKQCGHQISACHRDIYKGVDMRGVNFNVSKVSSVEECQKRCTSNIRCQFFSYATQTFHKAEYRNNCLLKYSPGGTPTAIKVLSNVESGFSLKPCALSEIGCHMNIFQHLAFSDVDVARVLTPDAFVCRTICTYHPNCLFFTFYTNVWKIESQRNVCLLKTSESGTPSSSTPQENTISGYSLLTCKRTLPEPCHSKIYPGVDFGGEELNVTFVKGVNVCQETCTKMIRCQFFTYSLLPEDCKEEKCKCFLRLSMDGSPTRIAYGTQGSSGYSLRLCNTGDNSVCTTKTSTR
Method in brief: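 2 nM human plasma kallikrein incubated at 30° C with 80 μM S2302 and increasing compound concentrations in 50 mM Tris-HCl pH 7.8, 200 mM NaCl, 2.5 mM CaCl2. Activity read as absorbance change at 405 nm; four-parameter logistic fit, Ki by Cheng-Prusoff.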

[3] = system: mouse model of middle cerebral artery occlusion (MCAO); details: cited from earlier work
sepsis patients = details: cited from earlier work

ecallantide [DX-88]
edema in patients with hereditary angioedema (HAE) [1]: alleviates edema
brain edema, infarct volume, and neurological deficits [2]: reduced brain edema, infarct volume, and neurological deficits

NC(N)=NCCC[C@@H](N)C(=O)N[C@@H](CCCN=C(N)N)C(=O)N1CCC[C@H]1C(=O)N1C[C@H](O)C[C@H]1C(=O)NCC(=O)N[C@@H](Cc1cccs1)C(=O)N[C@@H](CO)C(=O)N1Cc2ccccc2C[C@@H]1C(=O)N1[C@H](C(=O)N[C@@H](CCCN=C(N)N)C(=O)O)C[C@@H]2CCCC[C@@H]21 [Icatibant]
treating HAE [1]: effective in treating HAE

Cl.NCC1CCC(C(=O)N[C@@H](Cc2ccccc2)C(=O)Nc2ccc(CC(=O)O)cc2)CC1 (stereo partly shown) [PKSI-527]
joint swelling (rat models of arthritis): reduce joint swelling

N#Cc1cccc(C(N)(CCC2CC2)c2ccc(F)c(NC(=O)[C@H]3CCCN3C(=O)Nc3ccc(Cl)cc3)c2)c1 (stereo partly drawn) [Compound 7c, (R)-N2-(5-((+)-1-amino-1-(3-cyanophenyl)-3-cyclopropylpropyl)-2-fluorophenyl)-N1-(4-chlorophenyl)pyrrolidine-1,2-dicarboxamide]
Ki (human plasma kallikrein): > 100 nM

B1: C1-inhibitor: a physiological inhibitor (C1-inhibitor) (protein, UniProt P05155 23-500, looked up)
Plasma protease C1 inhibitor: NPNATSSSSQDPESLQDRGEGKVATTVISKMLFVEPILEVSSLPTTNSTTNSATKITANTTDEPTTQPTTEPTTQPTIQPTQPTTQLPTDSPTQPTTGSFCPGPVTLCSDLESHSTEAVLGDALVDFSLKLYHAFSAMKKVETNMAFSPFSIASLLTQVLLGAGENTKTNLESILSYPKDFTCVHQALKGFTTKGVTSVSQIFHSPDLAIRDTFVNASRTLYSSSPRVLSNNSDANLELINTWVAKNTNNKISRLLDSLPSDTRLVLLNAIYLSAKWKTTFDPKKTRMEPFHFKNSVIKVPMMNSKKYPVAHFIDQTLKAKVGQLQLSHNLSLVILVPQNLKHRLEDMEQALSPSVFKAIMEKLEMSKFQPTLLTLPRIKVTTSQDMLSIMEKLEFFDFSYDLNLCGLTEDPDLQVSAMQHQTVLELTETGVEAAAASAISVARTLLVFEVQQPFLFVLWDQQHKFPVFMGRVYDPRA
infarct size [3]: reduced infarct size
clinical outcome in sepsis patients (sepsis patients): Clinical improvement was observed
